Data reported in patent US20130315981A1, “METHOD FOR INDUCING FAT LOSS IN MAMMALS” (The Trustees of Columbia University in the City of New York, priority 2010, published 2013).

How the values were obtained:
[1] = system: ATMs in perigonadal adipose tissue; assay: CL316,243 treatment of lean mice: ATM content in perigonadal adipose tissue; format: in vivo, C57BL/6J mice
Method: Ten 8-week-old C57BL/6J mice fed the standard pellet diet (see above) were injected intraperitoneally with 1 mg/kg of CL316,243 or saline twice (4 hours between each injection). Mice were sacrificed 14 hours after the second injection. Perigonadal adipose tissue was excised and samples were stored as described above.
Adipose tissue samples were fixed for 48 hours at room temperature in zinc-formalin fixative (Anatech Ltd.), incubated in 70% ethanol for 24 hours, and subsequently embedded in paraffin. […] For each individual adipose tissue depot, 5-10 different high-power fields from each of 3 different sections were analyzed. The total number of nuclei and the number of nuclei of F4/80-expressing cells were counted for each field. The fraction of F4/80-expressing cells for each sample was calculated as the sum of the number of nuclei of F4/80-expressing cells divided by the total number of nuclei in sections of a sample. Cross-sectional area was determined for each adipocyte in each field using image analysis software Image-Pro Plus (Media Cybernetics Inc.). For each mouse, 800-1000 adipocytes were counted. Adipocyte number was calculated from fat pad weight and adipocyte volume (48). […] For each individual adipose tissue depot, 10 different high-power fields from each of 3 different sections were analyzed. […]

[2] = system: perigonadal adipose tissue explants; assay: Lipolysis (FFA release) of perigonadal adipose tissue explants with isoproterenol; format: cell-based, C57BL/6J mice; set-up: dose or concentration left out as unconfirmed; details: explants from lean ad libitum-fed mice
Method: Perigonadal fat pads were surgically removed from high-fat-fed C57BL/6J mice (n=5/group), which were either ad libitum fed or were undergoing caloric restriction. Subsequently, they were washed several times with PBS. Tissue pieces (−100 mg total weight) were incubated in DMEM (Invitrogen) containing 2% fatty acid-free BSA (Sigma-Aldrich) at 37° C. Aliquots were collected after 120 minutes and investigated for FFA and glycerol content. FFA and glycerol were measured using the HR NEFA series (Wako Diagnostics) and the free glycerol determination kit (Sigma-Aldrich), respectively. We measured adipocyte numbers in parallel samples from weight- and fat-matched ad libitum-fed and calorically restricted mice.
(§1) Explant-conditioned media, plain media, or media containing recombinant MCP-1 (50 ng/ml) (PeproTech) were added into the lower chamber. To obtain explant-conditioned media, explants were isolated from lean 10-week-old C57BL/6J mice that were ad libitum fed or fasted for 24 hours. […] Explant FFA content was evaluated using the HR NEFA series (Wako Diagnostics). […] At the end of the incubation, cells were detected by a green fluorescent dye (CyQUANT dye) included in the assay. Fluorescence intensity was measured with the Infinite 500 (Tecan). Cell numbers were determined based on fluorescence readings and a standard curve.

[3] = system: bone marrow-derived macrophages (BMDMs); assay: Macrophage migration assay with explant-conditioned media; format: cell-based, C57BL/6J mice; details: explant-conditioned medium, isoproterenol-treated explants; comparable to MCP-1/CCL2 (50 ng/ml)
Description: Murine BMDMs were differentiated in vitro from bone marrow precursor cells. Briefly, bone marrow cells were flushed from femurs and tibias of 9-week-old C57BL/6J mice, washed in DMEM (Invitrogen), and grown for 7 days in Petri dishes containing DMEM with 10% FBS, 20% L929 cell-conditioned media, 5% horse serum, 1% glutamine, and 1% sodium pyruvate. On the seventh day, media were replaced with DMEM containing 10% FBS, 10% L929 cell-conditioned media, 5% horse serum, 1% glutamine, and 1% sodium pyruvate; macrophages were grown for 3 more days. Differentiation was confirmed by FACS analysis. BMDM migration was evaluated using the QCM chemotaxis […] 96-well cell migration assay (Millipore) according to the manufacturer's instructions.
as §1

[4] = system: stromal vascular cells (SVCs); assay: Co-culture of SVCs with adipose tissue with or without isoproterenol; format: cell-based, C57BL/6J mice
Method: RNA was isolated from SVCs using the QIAGEN RNeasy Minikit (QIAGEN) and used as template for cDNA synthesis using Superscript III reverse transcriptase (Invitrogen) and random hexamer primers. Quantitative RT-PCR assays were carried out using DNA Engine Opticon 2 system instruments (Bio-Rad) and PCR SYBR Green I QuantiTect Master Mix (QIAGEN). The mRNA expression of all genes reported is normalized to the cyclophilin B (Ppib) gene expression. Every reaction was performed in duplicate, and the data were analyzed with the 2-DDCT method (49). To isolate SVCs, perigonadal adipose tissue was isolated from high-fat diet-induced obese C57BL/6J male mice immediately after CO2 asphyxiation. Tissues were handled using sterile techniques and minced into fine (<10 mg) pieces. For SVC isolation, minced samples were placed in DMEM (Invitrogen) supplemented with 10 mg/ml BSA (Sigma-Aldrich). An LPS-depleted collagenase cocktail (Liberase 3; Roche Applied Science) at a concentration of 0.03 mg/ml was added to the tissue suspension, and the samples were incubated at 37° C. on an orbital shaker (200 g) for 45 minutes. Once digestion was complete, samples were passed through a sterile 250-mm nylon mesh (Sefar America Inc.). The suspension was centrifuged at 500 g for 5 minutes. The pelleted cells were collected as SVCS. The SVCS were resuspended in erythrocyte lysis buffer (BD Biosciences) and incubated at room temperature for 1 minute. SVCS were plated at a concentration of 650,000 cells/well on cell culture inserts with 1-mm pore size (BD). Each insert was placed in a well of a 12-well tissue culture plate (BD) containing 100 mg of finely minced adipose tissue. To isolate small intact pieces of adipose tissue for culture, perigonadal adipose tissue was remove from high-fat-fed obese C57BL/6J mice and minced to approximately 10-mg size pieces. SVCS were cocultured with adipose tissue pieces for 24 hours in DMEM containing 10% FBS, 1% penicillin, and 2% fatty acid-free BSA. Isoproterenol (Sigma-Aldrich) was added in selected wells at a concentration of 10 mmoles/1. The stromal vascular fraction was collected for gene expression or oil red 0 staining after 24 hours. SVCS were air-dried and fixed with zinc-formalin fixative (see above) for 10 minutes and stained oil red O as previously described (50).

Compound | increase of ATM content in perigonadal adipose tissue ([1]; lean C57BL/6J mice, 1 mg/kg intraperitoneally twice 4 hours apart, tissue 14 hours after final injection, vs control-treated mice) | inflammatory phenotype of adipose tissue (expression of inflammatory markers) ([1]; lean mice, CL316,243 vs vehicle, perigonadal adipose tissue) | lipolysis as release of FFA from explants [2] | chemotactic activity of adipose tissue toward BMDMs [3] | SVC gene expression or lipid accumulation ([4]; SVCs cultured in the absence of adipose tissue, 24 hours) | lipid accumulation within SVCs (oil red O) ([4]; coculture with adipose tissue plus isoproterenol) | Ccr2 gene expression in the SVC fraction ([4]; coculture with adipose tissue plus isoproterenol stimulation) | program of adipocyte differentiation in SVCs (adiponectin, leptin, Pparg expression) ([4]; in the presence of adipose tissue) | Adfp gene expression in SVCs ([4]; in the presence of adipose tissue, 24 hours) | Cd36 expression in SVCs ([4]; in the presence of adipose tissue, P=0.09)
C[C@H](Cc1ccc2c(c1)OC(C(=O)[O-])(C(=O)[O-])O2)NC[C@H](O)c1cccc(Cl)c1.[Na+].[Na+] [CL316,243] | more than 5 fold | do not increase the inflammatory phenotype of adipose tissue | – | – | – | – | – | – | – | –
CC(C)NCC(O)c1ccc(O)c(O)c1 (stereo not shown) [isoproterenol] | – | – | increased lipolysis | proportional increase in the chemotactic activity | no effect | accumulation of lipid within SVCS | induced Ccr2 gene expression | no activation of a program of adipocyte differentiation | induced the expression of the gene Adfp | increased
